Measurements from patent publication US20160289640A1, “MTOR/STAT3 SIGNAL INHIBITOR-TREATED MESENCHYMAL STEM CELL HAVING IMMUNOMODULATORY ACTIVITY, AND CELL THERAPY COMPOSITION COMPRISING SAME, FOR PREVENTING OR TREATING IMMUNE DISORDERS” (THE CATHOLIC UNIVERSITY OF KOREA INDUSTRY-ACADEMIC …, priority 2013, published 2016).
“Also recorded” adds a separate entry of the source.

Legend:
[1] = test system: adipose tissue-derived mesenchymal stem cells; test: Cell migration kit analysis (upper/lower chamber, polycarbonate membrane); type: cell-based, human
Procedure: For the confirmation of cell migration of the mesenchymal stem cells treated with rapamycin (10 ng/mL), the cells were analyzed using a cell migration kit (Chemicon, Temecula, Calif.). That is, a group with CD4+T cells alone, a group treated with CD4+T cells and rapamycin (10 ng/mL), and a group treated with SDF-1 cells and CD4+T cells were added into the lower chamber, respectively, and the mesenchymal stem cells were added into the upper chamber. Then, for the migration of the adipose tissue-derived mesenchymal stem cells added into the upper chamber into the lower chamber, the cells passed through a polycarbonate membrane were stained and their number was observed by counting.

[2] = test system: mTOR signaling pathway in human adipose tissue-derived mesenchymal stem cells; test: Western blot analysis of mTOR signaling pathway and autophagy proteins; type: cell-based
Procedure: The present inventors, in furtherance with the result of <6-1>, performed western blot analysis to examine whether mTOR signaling pathway can be controlled by rapamycin, in the rapamycin-treated mesenchymal stem cells. For this purpose, human adipose tissue-derived mesenchymal stem cells were treated with 10 ng/mL rapamycin, and 1 hour later, the cells were lysed and proteins were extracted therefrom. Then, the extracted proteins were subjected to SDS-PAGE electrophoresis, electrically transferred to a nitrocellulose membrane, blocked with 5% skim milk for 1 hour, reacted by attaching primary antibodies to Beclin1, ATG5, ATG7, LC3I, LC3II, Phospho-mTOR, mTOR, Rictor, and Ractor, and then reacted by attaching secondary antibodies thereto, and photosensitized into Kodak X-ray using the Enhanced Chemiluminescence (ECL), and the expression levels of the proteins of these genes were analyzed (FIG. 6c).

[3] = test system: mesenchymal stem cells derived from human adipose tissue; test: Fluorescence microscope analysis of IL-10 and IDO expression in rapamycin-treated mesenchymal stem cells; type: cell-based; conditions: FIG. 1b
[4] = test system: mesenchymal stem cells; test: Flow cytometry of cell phenotype CD markers in rapamycin-treated mesenchymal stem cells; type: cell-based
Procedure: The mesenchymal stem cells isolated and cultured in <Example 1> were treated with rapamycin, respectively, and the phenotypes of the mesenchymal stem cells were analyzed. In particular, the mesenchymal stem cells not treated with rapamycin were used as a control, and the expression level of cell markers in the rapamycin-treated mesenchymal stem cells were analyzed via flow cytometry.

[5] = test system: mesenchymal stem cells; test: Real time PCR of genes associated with immunomodulatory activity in rapamycin-treated mesenchymal stem cells; type: cell-based, human
Procedure: (§1) The mesenchymal stem cells isolated and cultured in <Example 1> were treated with rapamycin, respectively, and the changes in the expression of IDO, IL-10, and TGF-β, which are genes associated with immunomodulatory activity. First, in a condition of 60 mm dish, for the adipose tissue-derived mesenchymal stem cells, the mesenchymal stem cells in the amount of 5 ? 10^5 cells which were treated with 100 nM rapamycin and cultured at 37° C. were used. In particular, the mesenchymal stem cells not treated with rapamycin were used as a control, and the expression level of the genes having immunomodulatory activity in rapamycin-treated mesenchymal stem cells was analyzed using a real time PCR method.

[6] = test system: mesenchymal stem cells derived from human adipose tissues; test: Formation of autophagic vacuoles observed under electron microscope; type: cell-based; conditions: 50 μM rapamycin
Procedure: Meanwhile, autophagy has the effects capable of controlling the beneficial or harmful effects of immunity and inflammation, and preventing autoimmunity and inflammatory diseases, and thus the rapamycin-treated mesenchymal stem cells of the present invention, due to their autophagy, can be more effectively used for the immunity and treatment of inflammatory diseases. As such, the present inventors treated the mesenchymal stem cells with 50 μM rapamycin and the degree of formation of autophagic vacuoles was observed under electron microscope.

[7] = test system: adipose tissue-derived mesenchymal stem cells; test: Real time PCR of inflammatory factors and tumor factors in rapamycin-treated mesenchymal stem cells; type: cell-based; conditions: 100 nM rapamycin, vs group not treated
Procedure: as §1, with “High-mobility group protein B1 (HMGB-1), IL-6,” for “IDO, IL-10,”, “IL-1β,” for “TGF-β,”, “inflammatory factors and tumor factors.” for “immunomodulatory activity.”

[8] = test system: adipose tissue-derived mesenchymal stem cells; test: Real-time PCR of autophagy factor markers; type: cell-based, human; conditions: 10 ng/mL rapamycin, 12 hours, vs group not treated
Procedure: The adipose tissue-derived mesenchymal stem cells isolated and cultured in Example 1 were treated with 10 ng/mL rapamycin, and 12 hours later, the cells were collected and the total RNA was obtained therefrom. Then, cDNA Synthesis Kit (Roche, Transcriptor First Strand cDNA Synthesis Kit) was prepared based on the RNA. Then, the expression levels of ATG5, LC3A, and LC3B genes, which are autophagy factor markers, were analyzed via real-time PCR using the thus-synthesized cDNA.

[9] = test system: adipose tissue-derived mesenchymal stem cell; test: Real-time PCR of cell migration markers; type: cell-based, human; conditions: 50 nM rapamycin, vs group not treated
Procedure: In order to confirm whether adipose tissue-derived mesenchymal stem cell treated with 50 nM rapamycin can migrate into a lesion area due to their cell migration capability, the present inventors analyzed the expression levels of CCR1, CCR2, CCR3, CCR4, CCR7, CCR9, and CXCR4, which are factors associated with the migration of mesenchymal stem cells, via real-time PCR.

[10] = 10 ng/mL rapamycin, 1 hour, western blot
[11] = 100 nM rapamycin, 5x10^5 cells, 37° C., real time PCR, vs group not treated

CO/C1=C\C(C)=C\[C@@H](C)[C@@H](O)[C@@H](C)C/C(C)=C/C=C/[C@H](OC)[C@@H]([C@@H](C)[C@@H](O)[C@H](C)[C@@]2(O)C[C@@H](O)[C@H](C)[C@@H](C(C)C)O2)OC1=O [bafilomycin]
cell migration capability of the rapamycin-treated mesenchymal stem cells ([1]; after treatment with bafilomycin): reduced

CO[C@H]1C[C@@H]2CC[C@@H](C)[C@@](O)(O2)C(=O)C(=O)N2CCCC[C@H]2C(=O)O[C@H]([C@H](C)C[C@@H]2CC[C@@H](O)[C@H](OC)C2)CC(=O)[C@H](C)/C=C(\C)[C@@H](O)[C@@H](OC)C(=O)[C@H](C)C[C@H](C)/C=C/C=C/C=C/1C [rapamycin, (3S,6R,7E,9R,10R,12R,14S,15E,17E,19E,21S,23S,26R,27R,34aS)-9,10,12,13,14,21,22,23,24,25,26,27,32,33,34,34a-hexadecahydro-9,27-dihydroxy-3-[(1R)-2-[(1S,3R,4R)-4-hydroxy-3-methoxycyclohexyl]-1-methylethyl]-10,21-dimethoxy-6,8,12,14,20,26-hexamethyl-23,27-epoxy-3H-pyrido [2,1-c][1,4]-oxaazacyclohentriacontine-1,5,11,28,29 (4H,6H,31H)-pentone]
migration of mesenchymal stem cells ([1]; CD4+T cells and rapamycin (10 ng/mL), vs mesenchymal stem cells not treated with anything): greater migration
expression level of ATG5 protein [2, 10]: increase
expression level of ATG7 protein [2, 10]: increase
expression level of Beclin1 protein [2, 10]: increase
expression level of LC3I protein [2, 10]: increase
expression level of LC3II protein [2, 10]: increase
mTOR activation (phosphorylation) [2, 10]: inhibited; also recorded: reduced
expression of Ractor ([2]; rapamycin treatment): decreased
expression of Rictor ([2]; rapamycin treatment): decreased
expression level of IL-10 cytokine [3]: significantly increased
expression of CD45 (negative marker) [4]: negative
expression of HLA-DR (negative marker) [4]: negative
increase in the expression of IDO [5, 11]: ~5 fold
increase in the expression of IL-10 [5, 11]: ~5 fold
increase in the expression of TGF-β [5, 11]: ~5 fold
increase in TGF-β expression ([5]; rapamycin-treated mesenchymal stem cells derived from adipose tissue vs not treated with rapamycin): ~30 fold
number of autophagic vacuoles [6]: increase
expression of HMGB-1 [7]: significant decrease
expression of IL-1β [7]: significant decrease
expression of IL-6 [7]: significant decrease
expression level of ATG5 gene [8]: significant increase
expression level of LC3A gene [8]: significant increase
expression level of LC3B gene [8]: significant increase
increase in the expression of CCR1 [9]: ~115 fold
increase in the expression of CCR2 [9]: ~25 fold
increase in the expression of CCR3 [9]: ~70 fold
increase in the expression of CCR4 [9]: ~32 fold
increase in the expression of CCR7 [9]: ~200 fold
increase in the expression of CCR9 [9]: ~150 fold
increase in the expression of CXCR4 [9]: ~60 fold
